Key:
[1] = tested on: tetramer-positive T cells from PBMC of HAM/TSP patients; assay: intracellular perforin staining of tetramer-positive T cells (FACS); format: cell-based, human
Method: The above-described phenotypically defined T cell populations were further characterized with respect to perforin expression and cytolytic activity. For intracellular perforin staining, cells were fixed and permeabilization with Cytofix/CytoPerm kit (BD Pharmingen), and stained with monoclonal antibody specific for perforin (BD Pharmingen). The cells were subjected to further FACS analysis and the resulting data was analyzed with Cellquest software (Becton Dickinson) to obtain the mean fluorescence intensity (MFI) for the cell populations.

[2] = tested on: tetramer-positive T cells from PBMC of HAM/TSP patients; assay: CD27 and CD45RA expression in HLA-GFP-acquiring tetramer-positive T cells after peptide presentation by HmyA2GFP cells; format: cell-based, human
CD8+ T cells in PBMCs = assay: HLA-GFP acquisition by CD8+ T cells in PBMCs mixed with peptide-pulsed HmyA2GFP cells (FACS); conditions: PBMC of HAM/TSP patient #5
PBMCs = assay: peptide loaded HLA-A*201 tetramer analysis of PBMCs (FACS); conditions: PBMC of HAM/TSP patient #5
[3] = CMV tetramer-positive cells, After contact with HmyA2GFP cells (1 hour)
[4] = HLA-GFP-acquiring tetramer-positive cells after stimulation with peptide-pulsed HmyA2GFP cells

NLVPMVATV [CMV pp65]
Perforin Expression Levels (in MFI) ([1]; HLA acquiring CMV tetramer-positive cells): 9.543 MFI
change in the amount of perforin in virus-specific T cells after peptide stimulation ([1]; after stimulation with peptide-pulsed HmyA2GFP cells): significant decrease
% CD27+ CD4SRA− [2, 3]: 2.51%
% CD27+ CD45RA+ [2, 3]: 3.05%
% CD27− CD45RA+ [2, 3]: 42.625%
% CD27− CD45RA− [2, 3]: 51.813%
change of CD27+CD45RA− (memory) subset [2, 4]: concomitant decrease
change of CD27-CD45+ (effector) subset [2, 4]: no significant change
change of CD27-CD45RA− (effector/memory) subset [2, 4]: significant increase
frequency of peptide-specific T cells in the PBMC population by the inventive method (CD8+ T cells in PBMCs): 6.34%
peptide-specific T cells in the PBMCs by tetramer (PBMCs): 6.57%

Source: patent publication US20070178532A1 (priority 2003, published 2007)
